What all share (test): Glasshouse assay for herbicidal activity (pre- and post-emergence), percentage phytotoxicity
Holding throughout (format): in vivo

The subject of assay [1] is Lolium perenne (LOLPE). The conditions noted are these: Lolium perenne. In short, it runs like this: (§1)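 Damage was rated visually as percent phytotoxicity, 100% meaning total kill, 20 days after pre-emergence application (made one day post-sowing) or 15 days after post-emergence application (made about 12 days post-sowing). Plants were grown under 16 h light, 65% humidity, warm species 24/18° C, cool 20/16° C.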

The test system of assay [2] is Alopecurus myosuroides (ALOMY). As to conditions: Alopecurus myosuroides. In short, it runs like this: as §1
In assay [3] the test system is Avena fatua (AVEFA). The conditions noted are these: Avena fatua. In outline:
as §1

Assay [4] deals with Echinochloa crus-galli (ECHCG). The conditions noted are these: Echinochloa crus-galli. In outline:
as §1

Setting [5] is: post-emergence, 360 h, POST-emergence, rate 250 g/ha, visual score 15 DAA (100%=total damage, 0%=no damage), read-out: Post-emergence herbicidal activity (percentage phytotoxicity) LOLPE POST.
The mark [6] stands for this setting: pre-emergence, 480 h, PRE-emergence, rate 250 g/ha, visual score 20 DAA (100%=total damage, 0%=no damage), read-out: Pre-emergence herbicidal activity (percentage phytotoxicity) LOLPE PRE.
Where [7] appears, read: post-emergence, 360 h, POST-emergence, rate 250 g/ha, visual score 15 DAA (100%=total damage, 0%=no damage), read-out: Post-emergence herbicidal activity (percentage phytotoxicity) ALOMY POST.
[8] abbreviates: pre-emergence, 480 h, PRE-emergence, rate 250 g/ha, visual score 20 DAA (100%=total damage, 0%=no damage), read-out: Pre-emergence herbicidal activity (percentage phytotoxicity) ALOMY PRE.
Setting [9] is: post-emergence, 360 h, POST-emergence, rate 250 g/ha, visual score 15 DAA (100%=total damage, 0%=no damage), read-out: Post-emergence herbicidal activity (percentage phytotoxicity) AVEFA POST.
Where [10] appears, read: pre-emergence, 480 h, PRE-emergence, rate 250 g/ha, visual score 20 DAA (100%=total damage, 0%=no damage), read-out: Pre-emergence herbicidal activity (percentage phytotoxicity) AVEFA PRE.
[11] abbreviates: post-emergence, 360 h, POST-emergence, rate 250 g/ha, visual score 15 DAA (100%=total damage, 0%=no damage), read-out: Post-emergence herbicidal activity (percentage phytotoxicity) ECHCG POST.
Where [12] appears, read: pre-emergence, 480 h, PRE-emergence, rate 250 g/ha, visual score 20 DAA (100%=total damage, 0%=no damage), read-out: Pre-emergence herbicidal activity (percentage phytotoxicity) ECHCG PRE.
Setting [13] is: post-emergence, 360 h, 250 g/ha, post-emergence, 15 DAA, visual assessment (100%=total damage, 0%=no damage), read-out: Post-emergence herbicidal activity (percentage phytotoxicity) LOLPE POST.
The mark [14] stands for this setting: pre-emergence, 480 h, 250 g/ha, pre-emergence, 20 DAA, visual assessment (100%=total damage, 0%=no damage), read-out: Pre-emergence herbicidal activity (percentage phytotoxicity) LOLPE PRE.
Where [15] appears, read: post-emergence, 360 h, 250 g/ha, post-emergence, 15 DAA, visual assessment (100%=total damage, 0%=no damage), read-out: Post-emergence herbicidal activity (percentage phytotoxicity) ALOMY POST.
[16] abbreviates: pre-emergence, 480 h, 250 g/ha, pre-emergence, 20 DAA, visual assessment (100%=total damage, 0%=no damage), read-out: Pre-emergence herbicidal activity (percentage phytotoxicity) ALOMY PRE.
[17] abbreviates: post-emergence, 360 h, 250 g/ha, post-emergence, 15 DAA, visual assessment (100%=total damage, 0%=no damage), read-out: Post-emergence herbicidal activity (percentage phytotoxicity) AVEFA POST.
[18] abbreviates: pre-emergence, 480 h, 250 g/ha, pre-emergence, 20 DAA, visual assessment (100%=total damage, 0%=no damage), read-out: Pre-emergence herbicidal activity (percentage phytotoxicity) AVEFA PRE.
The mark [19] stands for this setting: post-emergence, 360 h, 250 g/ha, post-emergence, 15 DAA, visual assessment (100%=total damage, 0%=no damage), read-out: Post-emergence herbicidal activity (percentage phytotoxicity) ECHCG POST.
The mark [20] stands for this setting: pre-emergence, 480 h, 250 g/ha, pre-emergence, 20 DAA, visual assessment (100%=total damage, 0%=no damage), read-out: Pre-emergence herbicidal activity (percentage phytotoxicity) ECHCG PRE.

Read-outs that look alike come from different tables or passages of the source.

With `CCc1cc(-n2cc(Cl)cn2)cc(C)c1C1C(=O)CC(CC(=O)NCC2CC2)C1=O` (stereo not drawn) [Compound B237], the pest or weed control at 250 g/ha in assay [1] (setting [5]) is 100%; in assay [1] (setting [6]), 90%; in assay [2] (setting [7]), 100%; in assay [2] (setting [8]), 100%; in assay [3] (setting [9]), 100%; in assay [3] (setting [10]), 90%. Further, the results for the pest or weed control at 250 g/ha in assay [4] (setting [11]) and in assay [4] (setting [12]) were 100% and 90%, respectively.
With `Cc1cc(-n2cc(Cl)cn2)cc(C)c1C1C(=O)CC(CC(=O)NCc2cccc(Cl)c2)C1=O` (stereo not drawn) [Compound B262], the pest or weed control at 250 g/ha in assay [1] (setting [5]) was found to be 70%; in assay [1] (setting [6]), 60%; in assay [2] (setting [7]), 70%; in assay [2] (setting [8]), 60%; in assay [3] (setting [9]), 90%; in assay [3] (setting [10]) it was 40%. Besides, the pest or weed control at 250 g/ha in assay [4] (setting [11]) is 100%; in assay [4] (setting [12]), 80%.
For the molecule `C#CC(C)N(C)C(=O)CC1CC(=O)C(c2c(C)cc(C)cc2C)C1=O` (single isomer, unassigned) [Compound A183], the pest or weed control at 250 g/ha in assay [1] (post-emergence, 360 h, post-emergence, 250 g/ha, 15 DAA, visual score (100%=total damage; 0%=no damage), read-out: LOLPE POST herbicidal activity (percentage phytotoxicity)) is 70%; in assay [1] (pre-emergence, 480 h, pre-emergence, 250 g/ha, 20 DAA, visual score (100%=total damage; 0%=no damage), read-out: LOLPE PRE herbicidal activity (percentage phytotoxicity)), 90%; in assay [2] (post-emergence, 360 h, post-emergence, 250 g/ha, 15 DAA, visual score (100%=total damage; 0%=no damage), read-out: ALOMY POST herbicidal activity (percentage phytotoxicity)), 70%; in assay [2] (pre-emergence, 480 h, pre-emergence, 250 g/ha, 20 DAA, visual score (100%=total damage; 0%=no damage), read-out: ALOMY PRE herbicidal activity (percentage phytotoxicity)) it was 50%; in assay [3] (post-emergence, 360 h, post-emergence, 250 g/ha, 15 DAA, visual score (100%=total damage; 0%=no damage), read-out: AVEFA POST herbicidal activity (percentage phytotoxicity)) it was 70%; in assay [3] (pre-emergence, 480 h, pre-emergence, 250 g/ha, 20 DAA, visual score (100%=total damage; 0%=no damage), read-out: AVEFA PRE herbicidal activity (percentage phytotoxicity)), 0%. Further, the pest or weed control at 250 g/ha in assay [4] (post-emergence, 360 h, post-emergence, 250 g/ha, 15 DAA, visual score (100%=total damage; 0%=no damage), read-out: ECHCG POST herbicidal activity (percentage phytotoxicity)) was found to be 80%; in assay [4] (pre-emergence, 480 h, pre-emergence, 250 g/ha, 20 DAA, visual score (100%=total damage; 0%=no damage), read-out: ECHCG PRE herbicidal activity (percentage phytotoxicity)), 80%.
Regarding `Cc1cc(-c2nc(C#N)cs2)cc(C)c1C1C(=O)CC(CC(=O)NC(C)(C)C)C1=O` (stereo not drawn) [Compound B30], the pest or weed control at 250 g/ha in assay [1] (setting [13]) was 30%; in assay [1] (setting [14]) it was 70%; in assay [2] (setting [15]), 70%; in assay [2] (setting [16]), 60%; in assay [3] (setting [17]), 90%; in assay [3] (setting [18]) it was 70%. Also, the pest or weed control at 250 g/ha in assay [4] (setting [19]) was found to be 80%; in assay [4] (setting [20]), 70%.
Regarding `CCNC(=O)CC1CC(=O)C(c2c(C)cc(-c3ccc(Cl)cn3)cc2C)C1=O` (stereo not drawn) [Compound B306], the pest or weed control at 250 g/ha in assay [1] (setting [5]), in assay [1] (setting [6]), in assay [2] (setting [7]), in assay [2] (setting [8]), in assay [3] (setting [9]) and in assay [3] (setting [10]) was 100% each time. The pest or weed control at 250 g/ha in assay [4] (setting [11]) and in assay [4] (setting [12]) was 100% throughout.
As for `Cc1ccnc(CNC(=O)CC2CC(=O)C(c3c(C)cc(C)cc3C)C2=O)c1` (stereo not drawn) [Compound B66], the pest or weed control at 250 g/ha was determined as 90% in assay [1] (setting [13]); 90% in assay [1] (setting [14]); 90% in assay [2] (setting [15]); 90% in assay [2] (setting [16]); 80% in assay [3] (setting [17]); 0% in assay [3] (setting [18]). Also, the figures for the pest or weed control at 250 g/ha in assay [4] (setting [19]) and in assay [4] (setting [20]) were 80% and 90%, respectively.
As to `C/C=C/c1cc(C)c(C2C(=O)CC(CC(=O)N(C)CC)C2=O)c(CC)c1` (stereo not drawn) [Compound B194], the pest or weed control at 250 g/ha worked out at 100% in assay [1] (setting [5]); 100% in assay [1] (setting [6]); 100% in assay [2] (setting [7]); 100% in assay [2] (setting [8]); 100% in assay [3] (setting [9]); 80% in assay [3] (setting [10]). In addition, the pest or weed control at 250 g/ha in assay [4] (setting [11]) turned out to be 100%; in assay [4] (setting [12]), 90%.
Consider `Cc1cc(OCC(F)(F)F)cc(C)c1C1C(=O)CC(CC(=O)NC(C)(C)C)C1=O` (stereo not drawn) [Compound B139], for which the pest or weed control at 250 g/ha in assay [1] (setting [13]) came to 80%; in assay [1] (setting [14]) it was 90%; in assay [2] (setting [15]), 90%; in assay [2] (setting [16]), 60%; in assay [3] (setting [17]), 90%; in assay [3] (setting [18]) it was 50%. The pest or weed control at 250 g/ha in assay [4] (setting [19]) and in assay [4] (setting [20]) was 100% in each case.
As to `CC#Cc1cc(C)c(C2C(=O)CC(CC(=O)NCCCC)C2=O)c(C)c1` (stereo not drawn) [Compound A29], the pest or weed control at 250 g/ha in assay [1] (post-emergence, 360 h, Rate 250 g/ha, post-emergence, assessed visually 15 DAA, 100%=total damage, 0%=no damage, read-out: Post-emergence herbicidal activity (percentage phytotoxicity) LOLPE POST) was 100%; in assay [1] (pre-emergence, 480 h, Rate 250 g/ha, pre-emergence, assessed visually 20 DAA, 100%=total damage, 0%=no damage, read-out: Pre-emergence herbicidal activity (percentage phytotoxicity) LOLPE PRE), 100%; in assay [2] (post-emergence, 360 h, Rate 250 g/ha, post-emergence, assessed visually 15 DAA, 100%=total damage, 0%=no damage, read-out: Post-emergence herbicidal activity (percentage phytotoxicity) ALOMY POST) it was 100%; in assay [2] (pre-emergence, 480 h, Rate 250 g/ha, pre-emergence, assessed visually 20 DAA, 100%=total damage, 0%=no damage, read-out: Pre-emergence herbicidal activity (percentage phytotoxicity) ALOMY PRE) it was 100%; in assay [3] (post-emergence, 360 h, Rate 250 g/ha, post-emergence, assessed visually 15 DAA, 100%=total damage, 0%=no damage, read-out: Post-emergence herbicidal activity (percentage phytotoxicity) AVEFA POST), 100%; in assay [3] (pre-emergence, 480 h, Rate 250 g/ha, pre-emergence, assessed visually 20 DAA, 100%=total damage, 0%=no damage, read-out: Pre-emergence herbicidal activity (percentage phytotoxicity) AVEFA PRE), 90%. In addition, the pest or weed control at 250 g/ha is 100% in assay [4] (post-emergence, 360 h, Rate 250 g/ha, post-emergence, assessed visually 15 DAA, 100%=total damage, 0%=no damage, read-out: Post-emergence herbicidal activity (percentage phytotoxicity) ECHCG POST) and 100% in assay [4] (pre-emergence, 480 h, Rate 250 g/ha, pre-emergence, assessed visually 20 DAA, 100%=total damage, 0%=no damage, read-out: Pre-emergence herbicidal activity (percentage phytotoxicity) ECHCG PRE).

These data come from patent publication US10206394B2, “Herbicidal compounds” (Syngenta Participations AG, priority 2014, dated 2019).
